Drawing on US6747148B2, “Sulfonamide derivatives as inhibitors of bone resorption and as inhibitors of cell adhesion” (Hoechst Marion Roussel Deutschland GmbH, priority 1998, dated 2004), this text covers IC50 for 23 compounds.

In this test the target is T1, vitronectin receptor αvβ3 (Homo sapiens, UniProt P05106+P06756).
T1 construct: expressed in transfected cells
T1 sequence (P06756 31-889 limits assumed): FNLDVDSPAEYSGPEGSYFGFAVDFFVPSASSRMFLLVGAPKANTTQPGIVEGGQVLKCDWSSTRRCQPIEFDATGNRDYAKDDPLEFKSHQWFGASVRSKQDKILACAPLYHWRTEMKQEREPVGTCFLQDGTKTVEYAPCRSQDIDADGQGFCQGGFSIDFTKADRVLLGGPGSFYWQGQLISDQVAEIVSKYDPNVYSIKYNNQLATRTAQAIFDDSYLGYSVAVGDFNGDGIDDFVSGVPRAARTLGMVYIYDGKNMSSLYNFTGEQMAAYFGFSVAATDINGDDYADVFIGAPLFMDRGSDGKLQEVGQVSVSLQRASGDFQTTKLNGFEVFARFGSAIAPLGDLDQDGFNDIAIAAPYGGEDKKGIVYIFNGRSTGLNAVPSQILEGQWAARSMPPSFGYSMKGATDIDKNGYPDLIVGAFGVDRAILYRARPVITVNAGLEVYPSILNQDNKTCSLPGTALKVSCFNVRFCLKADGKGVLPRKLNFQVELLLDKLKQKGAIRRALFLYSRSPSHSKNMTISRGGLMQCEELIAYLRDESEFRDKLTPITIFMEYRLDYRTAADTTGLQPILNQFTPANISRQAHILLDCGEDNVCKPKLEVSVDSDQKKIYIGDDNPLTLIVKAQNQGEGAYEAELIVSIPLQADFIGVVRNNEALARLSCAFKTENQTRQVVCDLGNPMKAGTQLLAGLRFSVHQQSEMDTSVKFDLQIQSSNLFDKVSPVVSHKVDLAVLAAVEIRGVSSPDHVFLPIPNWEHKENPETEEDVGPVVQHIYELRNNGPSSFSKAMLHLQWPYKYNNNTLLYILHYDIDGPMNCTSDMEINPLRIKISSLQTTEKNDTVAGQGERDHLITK
T1 sequence (P06756 891-1048 partner limits assumed): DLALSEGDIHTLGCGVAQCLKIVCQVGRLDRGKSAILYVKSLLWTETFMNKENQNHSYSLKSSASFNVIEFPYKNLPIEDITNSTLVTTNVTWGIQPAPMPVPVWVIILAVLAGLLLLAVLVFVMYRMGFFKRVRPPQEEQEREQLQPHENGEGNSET
T1 sequence (P05106 27-788): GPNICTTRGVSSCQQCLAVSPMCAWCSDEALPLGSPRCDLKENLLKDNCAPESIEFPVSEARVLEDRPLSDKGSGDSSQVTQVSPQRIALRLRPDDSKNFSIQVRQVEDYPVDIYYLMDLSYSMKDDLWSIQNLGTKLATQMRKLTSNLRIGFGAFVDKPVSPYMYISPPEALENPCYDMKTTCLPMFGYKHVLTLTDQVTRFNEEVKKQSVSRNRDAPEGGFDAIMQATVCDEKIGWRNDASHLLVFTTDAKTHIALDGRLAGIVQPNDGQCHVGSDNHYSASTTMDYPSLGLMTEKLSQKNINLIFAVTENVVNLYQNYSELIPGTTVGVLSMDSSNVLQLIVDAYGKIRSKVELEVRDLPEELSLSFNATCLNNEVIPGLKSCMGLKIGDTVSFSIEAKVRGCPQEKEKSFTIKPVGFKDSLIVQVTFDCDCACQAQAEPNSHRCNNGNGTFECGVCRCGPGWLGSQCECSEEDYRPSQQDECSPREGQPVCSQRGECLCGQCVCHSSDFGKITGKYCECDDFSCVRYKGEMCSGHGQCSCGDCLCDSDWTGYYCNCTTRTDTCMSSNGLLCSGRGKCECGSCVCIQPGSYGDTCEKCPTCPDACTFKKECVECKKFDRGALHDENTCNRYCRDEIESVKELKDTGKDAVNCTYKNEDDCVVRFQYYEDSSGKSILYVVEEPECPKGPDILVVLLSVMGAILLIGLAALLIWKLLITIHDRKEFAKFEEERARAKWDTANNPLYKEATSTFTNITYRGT
The test can be described thus: Inhibition of binding of 293 cells to human vitronectin (Vn/293 cell test). In kind it is cell-based. The settings on record: 293 cells cotransfected with αv and β3 subunits; plate coated with human vitronectin; 90 minutes at 37° C. An excerpt: Test for the Measurement of the Inhibition of Binding of 293 Cells to Human Vitronectin (Vn/293 Cell Test)
1. Purification of Human Vitronectin
Human vitronectin is isolated from human plasma and purified by affinity chromatography according to the method of Yatohyo et al., Cell Structure and Function […]: 281-292 (1988).
293 cells, a human embryonic kidney cell line, which are cotransfected with DNA sequences for the αv and β3 subunits of the vitronectin receptor αvβ3, are selected for a high rate of expression (>500,000 αvβ3 receptors/cell) according to the FACS method. The selected cells are cultured and sorted again by means of FACS in order to obtain a stable cell line (15 D) with expression rates >1,000,000 copies of αvβ3 per cell.
A Linbro 96-well tissue culture plate with a flat bottom is coated overnight at 4° C. with human vitronectin (0.01 mg/ml, 0.05 ml/well) in phosphate-buffered saline solution (PBS) and then blocked with 0.5% strength BSA (bovine serum albumin). Solutions of the test substances from 10^−10 mol/l to 2×10^−3 mol/l in glucose-containing DMEM medium are prepared and 0.05 ml/well of the solution are added to the plate in each case. The cells which express high levels of αvβ3 (for example 15 D) are suspended in glucose-containing DMEM medium and the suspension is adjusted to a content of 25,000 cells/0.05 ml of medium. 0.05 ml of this cell suspension is added to each well and the plate is incubated at 37° C. for 90 minutes. The plate is washed three times with warm PBS in order to remove unbound cells. The bound cells are lyzed in citrate buffer (25 mM, pH 5.0) which contains 0.25% Triton X-100. The hexoseamidase substrate p-nitrophenyl-N-acetyl-β-D-glucosaminide is then added and the plate is incubated at 37° C. for 90 minutes. The reaction is stopped with a glycine (50 mM)/EDTA (5 mM) buffer (ph 10.4), and the absorption of each well is measured at 405-650 nm. The data are analyzed according to standard processes.
Take `O=C(CCc1ccc(C(=O)NC[C@H](NS(=O)(=O)c2cccc(Cl)c2)C(=O)O)cc1)NC1=NCCCN1` [Example 14, (2S)-2-(3-Chloro-benzenesulfonylamino)-3-(4-(2-(1,4,5,6-tetrahydropyrimidin-2-ylcarbamoyl)-ethyl)-benzoylamino)-propionic acid]: the IC50 (in general, the concentration that gives 50% inhibition) turned out to be 10 nM. As for `O=C(CCc1ccc(C(=O)NC[C@H](NS(=O)(=O)c2ccc(Cl)cc2)C(=O)O)cc1)NC1=NCCCN1` [Example 13, (2S)-^2-(4-Chloro-benzenesulfonylamino)-3-(4-(2-(1,4,5,6-tetrahydropyrimidin-2-ylcarbamoyl)-ethyl)-benzoylamino)-propionic acid], the figure is 27 nM.

Consider `O=C(CCc1ccc(C(=O)NC[C@H](NS(=O)(=O)c2cccc3cccnc23)C(=O)O)cc1)NC1=NCCCN1` [Example 2, (2S)-2-(Quinoline-8-sulfonylamino)-3-(4-(2-(1,4,5,6-tetrahydropyrimidin-2-ylcarbamoyl)-ethyl)-benzoylamino)-propionic acid], for which the IC50 was found to be 52 nM. As for `O=C(CCc1ccc(C(=O)NC[C@H](NS(=O)(=O)c2ccccc2)C(=O)O)cc1)NC1=NCCCN1` [Example 17, (2S)-2-Benzenesulfonylamino-3-(4-(2-(1,4,5,6-tetrahydropyrimidin-2-ylcarbamoyl)-ethyl)-benzoylamino)-propionic acid], the figure is 9 nM.

Consider `O=C(CCc1ccc(C(=O)NC[C@H](NS(=O)(=O)c2cccs2)C(=O)O)cc1)NC1=NCCCN1` [Example 18, (2S)-3-(4-(2-(1,4,5,6-Tetrahydropyrimidin-2-ylcarbamoyl)-ethyl)-benzoylamino)-2-(thiophene-2-sulfonylamino)-propionic acid], for which the IC50 is 14 nM.

In turn, `CC(C)(C)c1ccc(S(=O)(=O)N[C@@H](CNC(=O)c2ccc(CCC(=O)NC3=NCCCN3)cc2)C(=O)O)cc1` [Example 5, (2S)-2-(4-tert-Butyl-benzenesulfonylamino)-3-(4-(2-(1,4,5,6-tetrahydropyrimidin-2-ylcarbamoyl)-ethyl)-benzoylamino)-propionic acid] yielded an IC50 of 18 nM. The compound `CC1(C)C2CCC1(CS(=O)(=O)N[C@@H](CNC(=O)c1ccc(CCC(=O)NC3=NCCCN3)cc1)C(=O)O)C(=O)C2` (stereo partly drawn) [Example 12, (2S)-2-(7,7-Dimethyl-2-oxo-bicyclo[2.2.1]hept-1-ylmethanesulfonylamino)-3-(4-(2-(1,4,5,6-tetrahydropyrimidin-2-ylcarbamoyl)-ethyl)-benzoylamino)-propionic acid] returned an IC50 of 27 nM. Compared with the last compound, the IC50 is about 1.5-fold higher. The same measure for `O=C(CCc1ccc(C(=O)NC[C@H](NS(=O)(=O)/C=C/c2ccccc2)C(=O)O)cc1)NC1=NCCCN1` [Example 7, (2S)-2-(2-Phenyl-ethenesulfonylamino)-3-(4-(2-(1,4,5,6-tetrahydropyrimidin-2-ylcarbamoyl)-ethyl)-benzoylamino)-propionic acid]: 28 nM; for `CS(=O)(=O)N[C@@H](CNC(=O)c1ccc(CCC(=O)NC2=NCCCN2)cc1)C(=O)O` [Example 24, (2S)-2-Methanesulfonylamino-3-(4-(2-(1,4,5,6-tetrahydropyrimidin-2-ylcarbamoyl)-ethyl)-benzoylamino)-propionic acid]: 100 nM; for `COc1ccc(S(=O)(=O)N[C@@H](CNC(=O)c2ccc(CCC(=O)NC3=NCCCN3)cc2)C(=O)O)cc1` [Example 16, (2S)-2-(4-Methoxy-benzenesulfonylamino)-3-(4-(2-(1,4,5,6-tetrahydropyrimidin-2-ylcarbamoyl)-ethyl)-benzoylamino)-propionic acid]: 26 nM. For the compound `O=C(CCc1ccc(C(=O)NC[C@H](NS(=O)(=O)c2ccc(C(F)(F)F)cc2)C(=O)O)cc1)NC1=NCCCN1` [Example 22, (2S)-3-(4-(2-(1,4,5,6-Tetrahydropyrimidin-2-ylcarbamoyl)-ethyl)-benzoylamino)-2-(4-trifluoromethyl-benzenesulfonylamino)-propionic acid], the IC50 was determined as 10 nM. As for `N#Cc1ccccc1S(=O)(=O)N[C@@H](CNC(=O)c1ccc(CCC(=O)NC2=NCCCN2)cc1)C(=O)O` [Example 11, (2S)-2-(2-Cyano-benzenesulfonylamino)-3-(4-(2-(1,4,5,6-tetrahydropyrimidin-2-ylcarbamoyl)-ethyl)-benzoylamino)-propionic acid], the figure is 24 nM; as for `O=C(CCc1ccc(C(=O)NC[C@H](NS(=O)(=O)c2cccc3ccccc23)C(=O)O)cc1)NC1=NCCCN1` [Example 1, (2S)-2-(Naphthalene-1-sulfonylamino)-3-(4-(2-(1,4,5,6-tetrahydropyrimidin-2-ylcarbamoyl)-ethyl)-benzoylamino)-propionic acid], 6 nM; as for `CCCCOc1ccc(S(=O)(=O)N[C@@H](CNC(=O)c2ccc(CCC(=O)NC3=NCCCN3)cc2)C(=O)O)cc1` [Example 10, (2S)-2-(4-Butoxy-benzenesulfonylamino)-3-(4-(2-(1,4,5,6-tetrahydropyrimidin-2-ylcarbamoyl)-ethyl)-benzoylamino)-propionic acid], 29 nM. In the case of `CCCCS(=O)(=O)N[C@@H](CNC(=O)c1ccc(CCC(=O)NC2=NCCCN2)cc1)C(=O)O` [Example 23, (2S)-2-(Butane-1-sulfonylamino)-3-(4-(2-(1,4,5,6-tetrahydropyrimidin-2-ylcarbamoyl)-ethyl)-benzoylamino)-propionic acid], the IC50 is 30 nM. `O=C(CCc1ccc(C(=O)NC[C@H](NS(=O)(=O)c2ccc3ccccc3c2)C(=O)O)cc1)NC1=NCCCN1` [Example 20, (2S)-2-(Naphthalene-2-sulfonylamino)-3-(4-(2-(1,4,5,6-tetrahydropyrimidin-2-ylcarbamoyl)-ethyl)-benzoylamino)-propionic acid] showed an IC50 of 5 nM. The same measure for `CC(=O)Nc1ccc(S(=O)(=O)N[C@@H](CNC(=O)c2ccc(CCC(=O)NC3=NCCCN3)cc2)C(=O)O)cc1` [Example 3, (2S)-2-(4-Acetylamino-benzenesulfonylamino)-3-(4-(2-(1,4,5,6-tetrahydropyrimidin-2-ylcarbamoyl)-ethyl)-benzoylamino)-propionic acid]: 27 nM; for `CC(C)CS(=O)(=O)N[C@@H](CNC(=O)c1ccc(CCC(=O)NC2=NCCCN2)cc1)C(=O)O` [Example 9, (2S)-2-(2-Methyl-propane-1-sulfonylamino)-3-(4-(2-(1,4,5,6-tetrahydropyrimidin-2-ylcarbamoyl)-ethyl)-benzoylamino)-propionic acid]: 69 nM; for `O=C(CCc1ccc(C(=O)NC[C@H](NS(=O)(=O)c2cccc(C(F)(F)F)c2)C(=O)O)cc1)NC1=NCCCN1` [Example 15, (2S)-3-(4-(2-(1,4,5,6-Tetrahydropyrimidin-2-ylcarbamoyl)-ethyl)-benzoylamino)-2-(3-trifluoromethyl-benzenesulfonylamino)-propionic acid]: 6 nM. As for `O=C(CCc1ccc(C(=O)NC[C@H](NS(=O)(=O)c2ccc(-c3ccccc3)cc2)C(=O)O)cc1)NC1=NCCCN1` [Example 19, (2S)-2-(Biphenyl-4-sulfonylamino)-3-(4-(2-(1,4,5,6-tetrahydropyrimidin-2-ylcarbamoyl)-ethyl)-benzoylamino)-propionic acid], the figure is 38 nM. As for `Cc1cc(C)c(S(=O)(=O)N[C@@H](CNC(=O)c2ccc(CCC(=O)NC3=NCCCN3)cc2)C(=O)O)c(C)c1` [Example 21, (2S)-3-(4-(2-(1,4,5,6-Tetrahydropyrimidin-2-ylcarbamoyl)-ethyl)-benzoylamino)-2-(2,4,6-trimethyl-benzenesulfonylamino)-propionic acid], the figure is 21 nM; as for `CCCS(=O)(=O)N[C@@H](CNC(=O)c1ccc(CCC(=O)NC2=NCCCN2)cc1)C(=O)O` [Example 6, (2S)-2-(Propane-1-sulfonylamino)-3-(4-(2-(1,4,5,6-tetrahydropyrimidin-2-ylcarbamoyl)-ethyl)-benzoylamino)-propionic acid], 32 nM.

For the compound `CCCc1ccc(S(=O)(=O)N[C@@H](CNC(=O)c2ccc(CCC(=O)NC3=NCCCN3)cc2)C(=O)O)cc1` [Example 8, (2S)-2-(4-Propyl-benzenesulfonylamino)-3-(4-(2-(1,4,5,6-tetrahydropyrimidin-2-ylcarbamoyl)-ethyl)-benzoylamino)-propionic acid], the IC50 is 20 nM.
